Measurements published in patent publication US10045983B2, “Heteroaryl pyridone and aza-pyrodine compounds” (Genentech, Inc., priority 2011, dated 2018).
Like-named read-outs stand apart in the source and are kept apart here.

Assay: CD69 Whole Blood Assay (CD69 Hu Blood FACS)
Assay type: cell-based, human
Conditions: Lymphocyte, human whole blood, anti-IgM activated B lymphocytes, FACS, IC70
Procedure, shortened: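 Human whole blood stimulated by crosslinking surface IgM with goat F(ab′)2 anti-human IgM; inhibition of CD69 expression on B lymphocytes measured by flow cytometry.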

[1] = Table 1, read-out: CD69 Hu Blood FACS IC70
[2] = Table 2 (unit inferred), read-out: CD69 Hu Blood FACS (IC70)

| Structure (SMILES) | IC70 [1] [nM] | IC70 [2] [nM] |
| --- | --- | --- |
| Cn1cc(-c2ccnc(N3CCn4c(cc5c4CCCC5)C3=O)c2CO)cc(Nc2ccc(N3CCNCC3)cn2)c1=O [Example 127, 2-(3-(Hydroxymethyl)-4-(1-methyl-6-oxo-5-(5-(piperazin-1-yl)pyridin-2-ylamino)-1,6-dihydropyridin-3-yl)pyridin-2-yl)-3,4,6,7,8,9-hexahydropyrazino[1,2-a]indol-1(2H)-one] | 141 |  |
| Cn1cc(-c2ccnc(N3CCc4c(sc5c4CC(C)(C)C5)C3=O)c2CO)cc(Nc2ccncn2)c1=O [Example 143, 6-[3′-Hydroxymethyl-1-methyl-6-oxo-5-(pyrimidin-4-ylamino)-1,6-dihydro-[3,4′]bipyridinyl-2′-yl]-2,2-dimethyl-2,3,5,6-tetrahydro-1H,4H-8-thia-6-aza-cyclopenta[a]inden-7-one] | 30.9 |  |
| Cn1cc(-c2ccnc(N3CCn4c(cc5c4CC(C)(C)C5)C3=O)c2CO)cc(Nc2ccccn2)c1=O [Example 273, 3-[3-(hydroxymethyl)-4-[1-methyl-6-oxo-5-(2-pyridylamino)-3-pyridyl]-2-pyridyl]-7,7-dimethyl-1,2,6,8-tetrahydrocyclopenta[3,4]pyrrolo[3,5-b]pyrazin-4-one] |  | 299 |
| Cn1cc(-c2ccnc(N3CCn4c(cc5c4CCCC5)C3=O)c2CO)cc(Nc2ccc(N3CCN(C4COC4)CC3(C)C)cn2)c1=O [Example 190, 2-[4-[5-[[5-[2,2-dimethyl-4-(oxetan-3-yl)piperazin-1-yl]-2-pyridyl]amino]-1-methyl-6-oxo-3-pyridyl]-3-(hydroxymethyl)-2-pyridyl]-3,4,6,7,8,9-hexahydropyrazino[1,2-a]indol-1-one] |  | 70.4 |
| C[C@H]1CN(C2COC2)CCN1c1ccc(Nc2cc(-c3ccnc(-n4ncc5c6c(sc5c4=O)CCCC6)c3CO)cn(C)c2=O)nc1 [Example 191, 5-[3-(Hydroxymethyl)-4-[1-methyl-5-({5-[(2S)-2-methyl-4-(oxetan-3-yl)pipera-zin-1-yl]pyridin-2-yl}amino)-6-oxo-1,6-dihydropyridin-3-yl]pyridin-2-yl]-8-thia-4,5-diazatricyclo[7.4.0.0^2,7]trideca-1(9),2(7),3-trien-6-one] |  | 43.5 |
| CCC(=O)N1CCn2nc(Nc3cc(-c4ccnc(N5CCn6c(cc7c6CC(C)(C)C7)C5=O)c4CO)cn(C)c3=O)cc2C1 [Example 265, 3-[3-(hydroxymethyl)-4-[1-methyl-6-oxo-5-[(5-propanoyl-6,7-dihydro-4H-pyrazolo[1,5-a]pyrazin-2-yl)amino]-3-pyridyl]-2-pyridyl]-7,7-dimethyl-1,2,6,8-tetrahydrocyclopenta[3,4]pyrrolo[3,5-b]pyrazin-4-one] |  | 9.1 |
| Cc1cc(Nc2cc(-c3ccnc(N4CCc5c(c(F)c6n5CCCC6)C4=O)c3CO)cn(C)c2=O)nn1C [Example 261, 2-[4-[5-[(1,5-dimethylpyrazol-3-yl)amino]-1-methyl-6-oxo-3-pyridyl]-3-(hydroxymethyl)-2-pyridyl]-10-fluoro-3,4,6,7,8,9-hexahydropyrido[3,4-b]indolizin-1-one] |  | 2900 |
| CN1CCn2nc(Nc3cc(-c4ccnc(N5CCn6c(cc7c6CCCC7)C5=O)c4CO)nn(C)c3=O)cc2C1 [Example 133, 2-(3-(Hydroxymethyl)-4-(1-methyl-5-(5-methyl-4,5,6,7-tetrahydropyrazolo[1,5-a]pyrazin-2-ylamino)-6-oxo-1,6-dihydropyridazin-3-yl)pyridin-2-yl)-3,4,6,7,8,9-hexahydropyrazino[1,2-a]indol-1(2H)-one] | 227 |  |
| Cc1cc(Nc2cc(-c3ccnc(N4CCc5c(cc6n5CCCC6)C4=O)c3CO)cn(C)c2=O)nn1C [Example 242, 2-[4-[5-[(1,5-dimethylpyrazol-3-yl)amino]-1-methyl-6-oxo-3-pyridyl]-3-(hydroxymethyl)-2-pyridyl]-3,4,6,7,8,9-hexahydropyrido[3,4-b]indolizin-1-one] |  | 1200 |
| C[C@@H]1CN(C2COC2)CCN1c1ccc(Nc2cc(-c3ccnc(-n4ccn5c6c(cc5c4=O)CCCC6)c3CO)cn(C)c2=O)nc1 [Example 151, 2-{3′-Hydroxymethyl-1-methyl-5-[5-((R)-2-methyl-4-oxetan-3-yl-piperazin-1-yl)-pyridin-2-ylamino]-6-oxo-1,6-dihydro-[3,4′]bipyridinyl-2′-yl}-6,7,8,9-tetrahydro-2H-pyrazino[1,2-a]indol-1-one] | 45.5 |  |
| Cn1cc(-c2ccnc(N3CCn4c(cc5c4CC(C)(C)C5)C3=O)c2CO)cc(Nc2nc3c(s2)COCC3)c1=O [Example 214, 3-[4-[5-(6,7-dihydro-4H-pyrano[4,3-d]thiazol-2-ylamino)-1-methyl-6-oxo-3-pyridyl]-3-(hydroxymethyl)-2-pyridyl]-7,7-dimethyl-1,2,6,8-tetrahydrocyclopenta[3,4]pyrrolo[3,5-b]pyrazin-4-one] |  | 124 |
| Cn1cc(-c2ccnc(N3CCn4c5c(c(F)c4C3=O)CCCC5)c2CO)cc(Nc2cc3n(n2)CCN(C2COC2)C3)c1=O [Example 166, 10-Fluoro-2-[3′-hydroxymethyl-1-methyl-5-(5-oxetan-3-yl-4,5,6,7-tetrahydro-pyrazolo[1,5-a]pyrazin-2-ylamino)-6-oxo-1,6-dihydro-[3,4′]bipyridinyl-2′-yl]-3,4,6,7,8,9-hexahydro-2H-pyrazino[1,2-a]indol-1-one] | 155 |  |
| Cn1cc(-c2ccnc(-n3ncc4c5c(sc4c3=O)CCCC5)c2CO)cc(Nc2ccc(N3CCN(C4COC4)CC3)cn2)c1=O [Example 124, 3-Hydroxymethyl-4-[1-methyl-5-(5-(4-(oxetan-3-yl)piperazin-1-yl)pyridine-2-ylamino)-6-oxo-1,6-dihydropyridin-3-yl]-2-{6-oxo-8-thia-4,5-diazatricyclo[7.4.0.0^2,7]trideca-1(9),2(7),3-trien-5-yl}pyridine] | 36.2 |  |
| CCn1nc(Nc2cc(-c3ccnc(N4CCn5c(cc6c5CC(C)(C)C6)C4=O)c3CO)cn(C)c2=O)cc1C [Example 252, 3-[4-[5-[(1-ethyl-5-methyl-pyrazol-3-yl)amino]-1-methyl-6-oxo-3-pyridyl]-3-(hydroxymethyl)-2-pyridyl]-7,7-dimethyl-1,2,6,8-tetrahydrocyclopenta[3,4]pyrrolo[3,5-b]pyrazin-4-one] |  | 252 |
| COCCN1CCn2nc(Nc3cc(-c4ccnc(N5CCn6c(cc7c6CC(C)(C)C7)C5=O)c4CO)cn(C)c3=O)cc2C1 [Example 296, 3-[3-(hydroxymethyl)-4-[5-[[5-(2-methoxyethyl)-6,7-dihydro-4H-pyrazolo[1,5-a]pyrazin-2-yl]amino]-1-methyl-6-oxo-3-pyridyl]-2-pyridyl]-7,7-dimethyl-1,2,6,8-tetrahydrocyclopenta[3,4]pyrrolo[3,5-b]pyrazin-4-one] |  | 19.3 |
| Cn1cc(-c2ccnc(N3CCn4c(cc5c4CC(C)(C)C5)C3=O)c2CO)cc(Nc2ccon2)c1=O [Example 286, 3-[3-(hydroxymethyl)-4-[5-(isoxazol-3-ylamino)-1-methyl-6-oxo-3-pyridyl]-2-pyridyl]-7,7-dimethyl-1,2,6,8-tetrahydrocyclopenta[3,4]pyrrolo[3,5-b]pyrazin-4-one] |  | 167 |
| COCCN1CCN(c2ccc(Nc3cc(-c4ccnc(N5CCn6c(cc7c6CC(C)(C)C7)C5=O)c4CO)cn(C)c3=O)nc2)CC1 [Example 339, 3-[3-(hydroxymethyl)-4-[5-[[5-[4-(2-methoxyethyl)piperazin-1-yl]-2-pyridyl]amino]-1-methyl-6-oxo-3-pyridyl]-2-pyridyl]-7,7-dimethyl-1,2,6,8-tetrahydrocyclopenta[3,4]pyrrolo[3,5-b]pyrazin-4-one] |  | 53.5 |
| Cn1cc(-c2ccnc(N3CCn4c(cc5c4CC(C)(C)C5)C3=O)c2CO)cc(Nc2cc(C3CC3)on2)c1=O [Example 311, 3-[4-[5-[(5-cyclopropylisoxazol-3-yl)amino]-1-methyl-6-oxo-3-pyridyl]-3-(hydroxymethyl)-2-pyridyl]-7,7-dimethyl-1,2,6,8-tetrahydrocyclopenta[3,4]pyrrolo[3,5-b]pyrazin-4-one] |  | 158 |
| Cn1cc(-c2ccnc(N3CCn4c(cc5c4CCCC5)C3=O)c2CO)cc(Nc2cc(C3CC3)[nH]n2)c1=O [Example 118, 2-(4-(5-(5-Cyclopropyl-1H-pyrazol-3-ylamino)-1-methyl-6-oxo-1,6-dihydropyridin-3-yl)-3-(hydroxymethyl)pyridin-2-yl)-3,4,6,7,8,9-hexahydropyrazino[1,2-a]indol-1(2H)-one] | 608 |  |
| C[C@@H]1COCCN1C(=O)c1ccc(Nc2cc(-c3ccnc(N4CCn5c(cc6c5CC(C)(C)C6)C4=O)c3CO)nn(C)c2=O)nc1 [Example 248, 3-[3-(hydroxymethyl)-4-[1-methyl-5-[[5-[(3R)-3-methylmorpholine-4-carbonyl]-2-pyridyl]amino]-6-oxo-pyridazin-3-yl]-2-pyridyl]-7,7-dimethyl-1,2,6,8-tetrahydrocyclopenta[3,4]pyrrolo[3,5-b]pyrazin-4-one] |  | 70.3 |
| COCc1cc(Nc2cc(-c3ccnc(N4CCn5c(cc6c5CC(C)(C)C6)C4=O)c3CO)cn(C)c2=O)nn1C [Example 316, 3-[3-(hydroxymethyl)-4-[5-[[5-(methoxymethyl)-1-methyl-pyrazol-3-yl]amino]-1-methyl-6-oxo-3-pyridyl]-2-pyridyl]-7,7-dimethyl-1,2,6,8-tetrahydrocyclopenta[3,4]pyrrolo[3,5-b]pyrazin-4-one] |  | 20.2 |
